Columns and labels:
[1] = system: SKH-1 female hairless mice; assay: Collagen biosynthesis in hairless mice, closed patch test, western blotting; type: in vivo; conditions: cream of Example 1 (theanine 1) on back skin, closed patch test 2 weeks, versus Comparative Example 1, FIG. 5
From the text: In order to examine the effect of improving skin wrinkle of theanine, SKH-1 female hairless mice, about 7 weeks old, were subjected to a closed patch test for 2 weeks. Each cream of Example 1 and Comparative Example 1 was applied on the back skin of the hairless mouse and after the closed patch test, the skin was biopsed. Proteins were separated from the biopsed skin and assessed for collagen by western blotting.

type 1 collagen = assay: Immunohistochemistry of type 1 collagen in skin tissue; type: in vivo, mice; conditions: 500 mg theanine per kg oral, 5 weeks, UV, versus Comparative Example 3, FIG. 8
Experimental: This example was performed using the hairless mice of Example 2 and Comparative Example 2 to 3, which had been used in Experiment Example 6 and histopathological observation was performed by immunohistochemistry. The skin on the back of the hairless mice was taken, fixed in 10% neutral formalin and subjected to immunohistochemistry using monoclonal IgG1 antibody to examine the expression of type 1 collagen in the skin tissue.

Human fibroblasts [2] = assay: Total collagen biosynthesis in dermal cells (L-[3H]-proline incorporation); type: cell-based; conditions: 1 mM theanine, 24 hours, relative to 100 of control group, FIG. 4
Experimental: 5×10^4 of human fibroblasts were cultured in 24 well plates. The medium was replaced with a medium containing 164 kBq/ml L-[^3H]-proline and supplemented with theanine in a concentration either 0.01, 0.1, 1 or 10 mM. After incubation of 24 hours, the cells were harvested, disrupted and treated with collagenase to separate collagen. Then, the amount of ^3H increased by the treatment with theanine was determined using a liquid scintillation counter and compared to that of the control group which had not been treated with theanine. Without regard to the collagen type, the total collagen amount was measured and the data described in FIG. 4 are calculated relative to 100 of the control group. As a result, it was confirmed that the total collagen biosynthesis was increased by about 45% when treated with 1 mM of theanine.

prolidase = assay: Prolidase activity in dermal cells (Chinard reaction, Gly-Pro substrate); type: cell-based, human; conditions: 0.01, 0.1, 1, 2 or 10 mM theanine, 24 hours, versus untreated control, FIG. 3
Experimental: 10^5 of human fibroblasts were cultured in 6 well plates for 6 days. The medium was replaced with heat-inactivated fetal bovine serum and then incubated for an additional 24 hours. The medium was again replaced with a culture medium containing either 0.01, 0.1, 1, 2 or 10 mM of theanine. After 24 hours, the cells were harvested and subjected to the Chinard reaction. The cells were ultrasonically disrupted and centrifuged at 100,000×g for 15 minutes. The supernatant was collected and mixed with 2 mM MnCl2 in the same amount for the prolidase reaction. The mixture was pre-reacted at 37° C. for 24 hours. 94 mM glycine-proline (Gly-Pro) dipeptide as a substrate of the prolidase reaction was added thereto in the same amount of the pre-reacted mixture and reacted at 37° C. for 1 hours. Then, the reaction was ended by adding 0.45M TCA. The enzymatic activity of prolidase was determined by quantifying proline, which is isolated by prolidase, by the color development using ninhydrin reagent. The enzyme activity was shown as a value calculating the equation of amount of isolated proline over protein weight over time (Mol/min/mg) and the result is shown in FIG. 3.

Human fibroblasts [3] = assay: Procollagen biosynthesis in dermal cells (ELISA); type: cell-based; conditions: 48 hours, FIG. 1
Experimental: Human fibroblasts are cultured in the concentration of 10^4 in 48 well plates. The medium of the plates was replaced with a culture medium containing either 10 μM of vitamin C or 10 μM of transforming growth factor-β (TGF-β) and a culture medium containing either 0.1, 1, 10 or 100 μM of theanine. After culturing for 48 hours, the supernatants were harvested and synthesized procollagen was quantified using the ELISA (Takara MK101) method. The data were calculated relative to 100 of control group without containing the above substances and the result was shown in FIG. 1.

[4] = system: female hairless mice (SKH, HR-1); assay: Inhibition of photoaging in hairless mouse, oral administration, replica / SkinVisiometer; type: in vivo; conditions: 500 mg theanine per kg oral, 5 weeks, UV total 600 mJ/cm^2, versus Comparative Example 3, FIG. 7
From the text: In order to examine the effect of orally administered theanine on photoaging, hairless mice were used as animal models for this experiment. As described in Table 2, 6 to 7 week old female hairless mice (SKH, HR-1) were divided into 3 groups of Comparative Example 2 (normal group), Comparative Example 3 (UV control group) and Example 2 (UV/theanine treatment group), each group having 8 mice and were raised for the experiment period.
The mice of Comparative Example 2 and Comparative Example 3 were orally administered with 0.5 ml of saline and the mice of Example 2 were administered with 500 mg of theanine, based on the solid faction, per kg of body weight dissolved in 0.5 ml of saline using a syringe for liquid injection. The administration was continued for total 5 weeks and performed at the predetermined time for 5 days per week. From 2 weeks through 5 weeks after the administration had started, the groups of Comparative Example 3 and Example 2 were irradiated by UV under conditions similar to solar light three times per week. Here, the total UV irradiation for the experiment period was set to 600 mJ/cm^2. In order to objectively judge the effect of improving wrinkle, a replica was taken from the back of each hairless mouse prior to an autopsy. The skin surface was imaged using SkinVisiometer to compare and rates the degree of the skin wrinkles.

[5] = system: female hairless mice (SKH, HR-1); assay: H&E staining, thickness of the epidermal layer; type: in vivo; conditions: for Thickness of epidermal layer: 500 mg theanine per kg oral, 5 weeks, UV
Experimental: In addition, the H&E (heamatoxylin & eosin) staining assay was performed for observation of general tissue condition and measurement of thickness of the epidermal layer. The thickness of the epidermal layer was measured at 10 different spots randomly selected per tissue by observing the H&E stained slide under the microscope with 100× magnification and the average value was shown in Table 3.

Human fibroblasts [6] = assay: Cell viability (MTT); type: cell-based; conditions: 1, 10, 100, 1000 and 10000 μM theanine, 24 hours, FIG. 2
Experimental: 2×10^3 of human fibroblasts were cultured in a 96 well plate, treated with 1, 10, 100, 1000 and 10000 μM of theanine and incubated for 24 hours. 3-(4,5-dimethylazol-2-yl)-2,5-diphenyl-2H-tetraazoliumbromide (MTT) was added to the concentration of 0.5 mg/ml and further incubated for 4 hours.

With CCNC(=O)CC[C@H](N)C(=O)O [theanine] the “collagen biosynthesis in skin (western blotting)” value [1] was “increased the collagen biosynthesis in the hairless mice”, the “type 1 collagen staining in skin tissue” value (type 1 collagen) was “more collagen was stained in the epidermal and dermal junction” and the “increase of total collagen biosynthesis” value (Human fibroblasts [2]) was “about 45%”. For the same compound, the “prolidase activity (amount of isolated proline)” value (prolidase) was “concentration-dependently increased”, the procollagen production (Human fibroblasts [3]; 0.1, 1, 10 or 100 μM theanine, relative to 100 of control group) was “increased collagen production of fibroblast concentration-dependently” and the “procollagen production compared with positive controls” value (Human fibroblasts [3]; versus 10 μM vitamin C or 10 μM TGF-β) was “higher procollagen production than the positive control groups”. For the same compound, the “density and depth of the wrinkles on the skin surface” value [4] was “alleviated as compared to those of Comparative Example 3”, the “Thickness of epidermal layer” value [5] was 77.4% and the Thickness of epidermal layer ([5]; average of 10 spots per tissue, the values are: epidermal thickness) was 7.56 ± 0.75 µm. The “decrease in the thickness of the epidermal layer” value ([5]; compared to the UV control group (Comparative Example 3)) was “about 23%” and the “cell viability / toxicity (MTT)” value (Human fibroblasts [6]) was “not toxic at all”.

Reference: patent publication US20100317736A1, “COMPOSITION OF THE SKIN EXTERNAL APPLICATION OR THE FOOD FOR ACCELERATING PROLINE RECYCLING BY CONTAINING THEANINE” (priority 2007, published 2010)
